# Measurements reported in the supplement of paper PMC11208160.
# Experiment: recombinant UMI read abundance after kanamycin selection (control-corrected) (log10(CPM+1)); higher = more efficient recombination; extreme values may be limits of the assay; sequences stand for … in AGTGCAGAGAAAATCGGCCAGTTTTCTCTGCCTGCAGTCCGCATGCCGTGGGACCCCTTGGGTTCTAACCTGTTGCCTAGATTTATGCAGCGGACTGCCTTTCTCCCAAAGTGATAAACCGG…AGGTTGGTTTCACT; site = the 11-nt donor
# Summary of the method: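 For the IS621 bridge recombinase, a pooled Escherichia coli screen tested donor and donor-binding-loop pairs. Cells received the pair library together with a target plasmid encoding a fixed target and T7-inducible recombinase, then went onto IPTG (0.07 mM) plus kanamycin or unselected plates in duplicate. After PCR across the donor–target junction and sequencing, recombinant UMI counts were normalized to CPM, averaged, and scaled by control-derived factors. Each value is given as log10(CPM+1).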
row,Sequence,recombinant UMI read abundance (log10)
1,TGGCCGACATGGACCGGTTTTCCCGGTAATCCGTATTTGGC (site TGGCCGACTGC),0
2,GTATGAACATGGACCGGTTTTCCCGGTAATCCGTATTTGTA (site GTATGAACTTA),2.42
3,TAGAATACATGGACCGGTTTTCCCGGTAATCCGTATTTGCA (site TATAATACTTG),0.633
4,GGGCGTCCATGGACCGGTTTTCCCGGTAATCCGTATTTGGT (site GGGCGTCCTAC),0
5,GCGTAAACATGGACCGGTTTTCCCGGTAATCCGTATTTGCT (site GCGAAAACTAG),0
6,CACTTGACATGGACCGGTTTTCCCGGTAATCCGTATTTGCT (site GACTTGACTAG),0
7,CGAACGACATGGACCGGTTTTCCCGGTAATCCGTATTTGTT (site CGATCGACTAA),0.00769
8,TAGCTGGCATGGACCGGTTTTCCCGGTAATCCGTATTTGAA (site TAGCTTGCTTT),0
9,CCGGAGTCATGGACCGGTTTTCCCGGTAATCCGTATTTGCC (site CTGGAGTCTGG),0
10,ACAGCTACATGGACCGGTTTTCCCGGTAATCCGTATTTGTG (site ACAGCTACTCA),1.44
11,GGTTCTACATGGACCGGTTTTCCCGGTAATCCGTATTTGAG (site GGTTCTACTCT),0.316
12,CGTTTGGCATGGACCGGTTTTCCCGGTAATCCGTATTTGCG (site CGTTTGGCTGG),0
13,ACTGTGTCATGGACCGGTTTTCCCGGTAATCCGTATTTGCA (site ACTGTGTCTTG),2.89
14,TCCACCTCATGGACCGGTTTTCCCGGTAATCCGTATTTGCG (site TCCACCGCTCG),0.0129
15,GGGCGTCCATGGACCGGTTTTCCCGGTAATCCGTATTTGCA (site GGGCGTCCTTG),2.59
16,CAAGCGGCATGGACCGGTTTTCCCGGTAATCCGTATTTGCT (site CAAGCCGCTAG),0
17,TCAGATACATGGACCGGTTTTCCCGGTAATCCGTATTTGCG (site TCAGATACTCG),1.33
18,GCTACTGCATGGACCGGTTTTCCCGGTAATCCGTATTTGCC (site GCTGCTGCTGG),0.274
19,CACTCCTCATGGACCGGTTTTCCCGGTAATCCGTATTTGCC (site CGCTCCTCTGG),1.95
20,CGTTAGACATGGACCGGTTTTCCCGGTAATCCGTATTTGAG (site CGTTAGTCTCT),0.506
21,CCGGTTACATGGACCGGTTTTCCCGGTAATCCGTATTTGCT (site CCGCTTACTAG),0
22,CTATCATCATGGACCGGTTTTCCCGGTAATCCGTATTTGGT (site CGATCATCTAG),0
23,CGATCATCATGGACCGGTTTTCCCGGTAATCCGTATTTGCT (site CGATCATCTCG),0
24,ACCTGGACATGGACCGGTTTTCCCGGTAATCCGTATTTGAG (site ACCTGGACTCT),1.41
25,CGACGTACATGGACCGGTTTTCCCGGTAATCCGTATTTGCT (site CGGCGTACTAG),0.688

row,Sequence,recombinant UMI read abundance (log10)
1,ACGTCTACATGGACCGGTTTTCCCGGTAATCCGTATTTGTG (site ACTTCTACTCA),0.0124
2,CAAGTAGCATGGACCGGTTTTCCCGGTAATCCGTATTTGCT (site CAAGGAGCTAG),0.0678
3,ATGTATACATGGACCGGTTTTCCCGGTAATCCGTATTTGAC (site ATTTATACTGT),0.661
4,CACTGGGCATGGACCGGTTTTCCCGGTAATCCGTATTTGGA (site CACTCGGCTTC),0.0182
5,TAGAGTCCATGGACCGGTTTTCCCGGTAATCCGTATTTGTA (site TAAAGTCCTTA),0.546
6,ACAACTACATGGACCGGTTTTCCCGGTAATCCGTATTTGTG (site ACAGCTACTCA),0.0923
7,AAGACGACATGGACCGGTTTTCCCGGTAATCCGTATTTGGA (site AAGACGACTTC),0.804
8,CACTCCTCATGGACCGGTTTTCCCGGTAATCCGTATTTGCC (site CTCTCCTCTGG),2.29
9,CGATCATCATGGACCGGTTTTCCCGGTAATCCGTATTTGCT (site CGACCAACTAG),0.00386
10,TAAGAGACATGGACCGGTTTTCCCGGTAATCCGTATTTGCG (site TGAGAGACTCG),0.483
11,GCCACGCCATGGACCGGTTTTCCCGGTAATCCGTATTTGTG (site GCCACGCCTAA),0.0114
12,ACACCAACATGGACCGGTTTTCCCGGTAATCCGTATTTGTC (site ACACGAACTGA),0
13,CGTTAGACATGGACCGGTTTTCCCGGTAATCCGTATTTGAG (site CGTCAGACTCT),0.944
14,TAGAATACATGGACCGGTTTTCCCGGTAATCCGTATTTGCA (site TGGAATACTTG),0
15,TCCACCGCATGGACCGGTTTTCCCGGTAATCCGTATTTGCG (site TCCGCCGCTCG),0.0234
16,CAAGGTGCATGGACCGGTTTTCCCGGTAATCCGTATTTGAT (site CGAGGTGCTAT),1.13
17,GTTAGACCATGGACCGGTTTTCCCGGTAATCCGTATTTGGC (site GTTAGAACTGC),0
18,CAATGCTCATGGACCGGTTTTCCCGGTAATCCGTATTTGAA (site CACTGCTCTTT),0.0585
19,CAAGCCGCATGGACCGGTTTTCCCGGTAATCCGTATTTGCT (site CAAGCGGCTAG),0.00324
20,CACTCCTCATGGACCGGTTTTCCCGGTAATCCGTATTTGCC (site CACTCCTCTGA),0.906
21,CAATGCTCATGGACCGGTTTTCCCGGTAATCCGTATTTGAA (site CAATGTTCTTT),0
22,GCATACTCATGGACCGGTTTTCCCGGTAATCCGTATTTGCA (site GCATACTCTTG),2.96
23,CCTAAAGCATGGACCGGTTTTCCCGGTAATCCGTATTTGAG (site CCTAAAGCTTT),0
24,CAAGGTGCATGGACCGGTTTTCCCGGTAATCCGTATTTGAT (site CCAGGTGCTAT),0.8
25,TAATGCTCATGGACCGGTTTTCCCGGTAATCCGTATTTGAA (site CAATGCTCTTT),0.61

row,Sequence,recombinant UMI read abundance (log10)
1,CGGTTGGCATGGACCGGTTTTCCCGGTAATCCGTATTTGCT (site CGGTTGGCTAG),1.08
2,CAAGTCACATGGACCGGTTTTCCCGGTAATCCGTATTTGTG (site CAAGTCACTCA),0.0199
3,CGATCATCATGGACCGGTTTTCCCGGTAATCCGTATTTGCT (site CGATCAACTCG),0
4,CGATCATCATGGACCGGTTTTCCCGGTAATCCGTATTTGCT (site TGATCAACTAG),0
5,TTTGCGGCATGGACCGGTTTTCCCGGTAATCCGTATTTGCA (site TTTGCGGCTGG),0
6,CCCTGTTCATGGACCGGTTTTCCCGGTAATCCGTATTTGGG (site CCCTGTTCTCC),0.00741
7,CGTTTGGCATGGACCGGTTTTCCCGGTAATCCGTATTTGCT (site CGTTCGGCTAG),0.0122
8,GTATACACATGGACCGGTTTTCCCGGTAATCCGTATTTGTA (site GTATGCACTTA),0.0117
9,CGCCGTACATGGACCGGTTTTCCCGGTAATCCGTATTTGCT (site CGCCGTACTAC),0.00604
10,AGTTTCCCATGGACCGGTTTTCCCGGTAATCCGTATTTGTG (site AGGTTCCCTCA),0.0056
11,CGGAATCCATGGACCGGTTTTCCCGGTAATCCGTATTTGTT (site CGGAATCCTAA),1.19
12,GTGAGTACATGGACCGGTTTTCCCGGTAATCCGTATTTGAG (site GTGAGTACTCT),1.75
13,CAGGAATCATGGACCGGTTTTCCCGGTAATCCGTATTTGCG (site CAGGAATCTCG),3.26
14,TGTTAGACATGGACCGGTTTTCCCGGTAATCCGTATTTGAG (site AGTTAGACTCT),0.103
15,TGGGCCACATGGACCGGTTTTCCCGGTAATCCGTATTTGCA (site TGGGCCACTTG),1.45
16,AATATAACATGGACCGGTTTTCCCGGTAATCCGTATTTGCT (site AATCTAACTAG),0.615
17,AGGAAGCCATGGACCGGTTTTCCCGGTAATCCGTATTTGAA (site AGGAAGCCTTT),0.308
18,AAGCTCACATGGACCGGTTTTCCCGGTAATCCGTATTTGAT (site AAGCTCACTAT),1.97
19,CGCCGTACATGGACCGGTTTTCCCGGTAATCCGTATTTGCT (site CGCCGTTCTAG),0
20,CCGAGCTCATGGACCGGTTTTCCCGGTAATCCGTATTTGTA (site CCGAGCTCTTA),0.496
21,GCTTGCTCATGGACCGGTTTTCCCGGTAATCCGTATTTGAT (site GCTTGCTCTAT),1.46
22,AGGTTCCCATGGACCGGTTTTCCCGGTAATCCGTATTTGCG (site AGGTTCCCTCT),0.00665
23,CAATTCCCATGGACCGGTTTTCCCGGTAATCCGTATTTGAT (site CAATTCCCTAT),1.7
24,CCGAGGCCATGGACCGGTTTTCCCGGTAATCCGTATTTGGC (site CCGAGGCCTGC),0
25,GGCACGTCATGGACCGGTTTTCCCGGTAATCCGTATTTGTT (site GGGACGTCTAA),0.00471
